Measured values from US8222008B2, “Methods and compositions for treating cancer” (The Administrators of The Tulane Educational Fund, priority 2003, dated 2012).

Key:
MDA-MB-468 (ER−) = test: Apoptosis in breast cancer cell lines, CaspACE assay with flow cytometry; format: cell-based, human; conditions: CDME 500 μM, 16 hours
Description: (§1) The apoptotic effect of CDME was compared to that of tamoxifen using the CaspACE™ assay system (Promega) and conventional flow cytometry techniques.
(§2) All cell lines were obtained from the American Type Culture Collection, P.O. Box 1549, Manassas, Va., 20108 unless otherwise indicated. The cell lines studied were estrogen receptor-negative breast cancer cell lines MDA-MB-231 (ATCC Accession No. HTB-26) and MDA-MB-468 (ATCC Accession No. HTB-132) and estrogen receptor-positive breast cancer cell lines, MCF-7 (ATCC Accession No. HTB-22) and T-47D (ATCC Accession No. HTB-133).
(§3) All cell lines were grown on the bottom of 12-well flasks in Gibco RPMI-1640, until they reached the confluency of about 50%. After that, the medium was exchanged with DMEM (Sigma, D-5030), supplemented with 10% charcoal-treated FBS.
(§4) After four days (at confluency of about 75%), cells were treated by exposure to either CDME (500 μM) or tamoxifen (100 μM) or neither for 16 hours at 37° C. CaspACE™ assay analysis of the treated and control cells was performed as described in Example 2 and measured via flow cytometry. Note that the dosage of tamoxifen was a maximum positive control dose, higher than that normally administered for chemotherapy.

MCF-7 (ER+) = test: as above; format: cell-based, human; conditions: CDME 500 μM, 16 hours
Description: as §1, §2, §3, §4

T-47D (ER+) = test: as above; format: cell-based, human; conditions: CDME 500 μM, 16 hours
Description: as §1, §2, §3, §4

MDA-MB-231 (ER−) = test: as above; format: cell-based, human; conditions: CDME 500 μM, 16 hours
Description: as §1, §2, §3, §4

kidney of black mice = test: Kidney cystine concentration after CDME injection (CBP and BCA assays); format: in vivo, mouse
Protocol: Intracellular lysosomal free cystine was determined using a cystine binding protein (CBP) assay (Oshima et al, 1974 J. Biol. Chem., 249:6033-6039). CBP was procured from Riverside Scientific. The assay has a sensitivity of 0.1 μM. Total cell protein was determined by a modification of the Lowry method (Lowry O. et al 1951 J. Biol. Chem., 193:265-275). Statistical analyses were performed using paired t test for means with SSPS for Windows. Results are mean+/−1.0 SD (FIG. 3).
(§5) CDME was evaluated in mice for cystine generation in response to varying doses as follows: A stock solution of CDME in PBS was prepared having a concentrations of 1.8 g CDME/500 μL PBS. The stock solution was diluted to generate solutions for administration. 500 μL of diluted solutions were injected intraperitoneally into black mice (body mass ˜0.03 kg). All injections were performed in duplicate.
Following administration of the solutions of Table 6, the endogenous cystine concentrations in two organs (kidney and liver) were examined for the 6 mice, i.e., the CDME-injected mice as well as black, heterozygous, and wild-type control mice. The analysis was performed using the cystine binding protein CBP assay of Example 1 and the Bicinchoninic Acid BCA assay (Pierce Biotechnology) for total protein concentration.

normal fibroblasts = test: Apoptosis after lysosomal cystine loading, CaspACE assay (FIG. 1); format: cell-based, human; conditions: 0.5 mM CDME 1 hour pretreatment, then TNF-a or UV, 16 hours in CDME-containing medium; control rate 7.2+/−1.3%
Protocol: 1. The CaspACE Assay • CaspACE (Promega) is an FITC-conjugated cell-permeable form of the pan-caspase inhibitor zVAD-Fmk, which binds to activated caspase(s). Cells were incubated in FITC-VAD-Fmk-containing medium (10 μM for 30 minutes at 37° C.), washed, and then fixed in 10% buffered formalin (30 minutes at room temperature) before analysis. The cells were visually enumerated by fluorescence microscopy, scoring a minimum of five fields (250 to 300 cells) for fluorescence in triplicate followed by counting all cells in the same field by light microscopy, with a minimum of 750 cells scored per condition. The apoptosis rate is the total number of cells that fluoresce divided by the total cells in the field.
Normal fibroblast lysosomes were loaded with cystine by the addition of 0.5 mM cystine dimethylester (CDME, Sigma) to normal culture medium for 1 hour before treatment (Pisoni, R L, et al, 1992 Somat. Cell. Mol. Genet., 18:1-6). The cells were treated with apoptotic triggers, leaving CDME in the medium to prevent lysosomal cystine loss, and then analyzed for apoptosis.
The lysosomal cystine content of normal fibroblasts was also altered as follows. Normal fibroblasts also at passage 7-13 were pretreated with 0.5 mM CDME for 1 hour, increasing the cystine content of their lysosomes to the cystinotic range (0.47 to 1.95 nmol of cystine per mg of protein). […]

black mice = test: Toxicity study of CDME in mice; format: in vivo, mouse; conditions: intraperitoneal injection, 500 μL in PBS
Protocol: as §5
Mice given effective dosages of 5,000 mg CDME/kg body mass or higher died. […] The CDME-injected mice contained close to 100-fold increases in intralysosomal cystine.

RPTE cells = test: Annexin V and propidium iodide staining; format: cell-based, human; conditions: TNF-a after loading with 0.1 mM CDME
Protocol: 3. The Annexin V Assay • Annexin V-propidium iodide (PI) staining was performed as described by the manufacturer (Annexin V Fluos kit directions, Roche Laboratories) one time after TNF-a stimulation. D. Cystine Binding Protein Assay
Lysosomal cystine loading of RPTE cells was accomplished by exposure to 0.1 mM or 0.25 CDME in normal REGM for 1 hour before treatment with or without apoptotic triggers.
Exposure of RPTE cells to TNF-a after cystine loading by exposure to 0.1 mM CDME and analysis by Annexin V and Propidium iodide staining yielded 4.3% Annexiv V positive cells and zero PI positive cells at 1 h after exposure, 9.5% and 1.7% at 3 hours and 25.3% and 9.1% at 6 hours. The proportion of necrotic RPTE cells increased with duration of exposure to CDME, but remained substantially less than the number of those that are apoptotic.

With `COC(=O)[C@@H](N)CSSC[C@H](N)C(=O)OC` [CDME, cystine dimethyl ester] the “percent of apoptotic cells (±S.D.)” value (MDA-MB-468 (ER−)) was 44.88 ± 13.52%, the “percent of apoptotic cells (±S.D.)” value (MCF-7 (ER+)) was 6.16 ± 1.80% and the “percent of apoptotic cells (±S.D.)” value (T-47D (ER+)) was 7.78 ± 4.19%. The “percent of apoptotic cells (±S.D.)” value (MDA-MB-231 (ER−)) was 99.32 ± 0.22%, the “Kidney Cystine Concentration” value (kidney of black mice; 10,000 mg CDME/kg intraperitoneally, Mouse #3) was 97 nmol cystine/mg protein and the “increase in intralysosomal cystine” value (kidney of black mice; CDME-injected mice versus controls) was ~100 fold. The “apoptotic rate after exposure to CDME” value (normal fibroblasts) was 18.7+/−5.4%, the “effective dosage at which mice died” value (black mice) was ≥ 5,000 mg CDME/kg body mass and the “Annexin V positive cells” value (RPTE cells; 1 h after exposure) was 4.3%. For the same compound, the PI positive cells (RPTE cells; 1 h after exposure) was “zero”, the “Annexin V positive cells” value (RPTE cells; 3 hours) was 9.5% and the PI positive cells (RPTE cells; 3 hours) was 1.7%. The “Annexin V positive cells” value (RPTE cells; 6 hours) was 25.3% and the PI positive cells (RPTE cells; 6 hours) was 9.1%.
